Measurements published in patent publication US8993839B2, “Plant-based production of heterologous proteins” (The Regents of the University of California, priority 2010, dated 2015).

Molecular target: Acidothermus cellulolyticus β-1,4-endoglucanase E1 (P. pastoris-produced) (Acidothermus cellulolyticus, UniProt P54583)
Experiment: Michaelis-Menten kinetics of purified E1 (produced in P. pastoris, IMAC purified): cleavage of MUC to cellobiose and MU at various temperatures
Format: biochemical
Conditions: substrate MUC, E1 concentration by Bradford assay
Method: Endoglucanase activity assay: Endoglucanase (E1) cleaves methylumbelliferyl-tagged cellobiose (MUC), releasing methylumbelliferone (MU). The MU fluorescence can be measured to determine E1 activity. The relative fluorescence readings of 0.024 to 3.0 μM MU solutions were used to create a linear standard curve. Samples containing E1 were diluted so the concentration of MU released fell within the standard curve. A 60 μl aliquot of diluted supernatant was added to 540 μl of acetate buffer (200 mM acetate, pH 5.5, 100 mM NaCl) and 200 μl of substrate (500 μM MUC). 200 μl of reaction was sampled at time zero and after 30 minutes and added to 800 μl of stop buffer (150 mM glycine, pH 10). The change in fluorescence over time was measured with a VersaFluor fluorometer (Bio-Rad). Fluorescence was converted to an activity, and the specific activity reported in the literature was used to approximate the concentration of E1 in Pichia supernatants. The Michaelis-Menten kinetic parameters of purified endoglucanase were determined. The E1 was produced in P. pastoris and purified by IMAC (immobilized metal affinity chromatography). E1 cleaves the substrate (MUC) into cellobiose and a fluorophore (MU), the concentration of which can be monitored over time. When run at 65° C. and […] substrate, this is the reaction used for the activity assay for E1 in plant extracts and yeast cultures. In this set of experiments, the substrate concentration was varied to determine the kinetic parameters at different temperatures. The rate for a reaction displaying Michaelis-Menten kinetics is shown in Equation 1. The rate depends on the catalysis rate (kcat), the total enzyme concentration (ET), the adsorption/desorption rates which are lumped into the Michaelis-Menten constant (KM), and the substrate concentration (S). At high substrate concentrations (S>>KM), the rate approaches a maximum, and […] is often written as Vmax. The parameters Vmax and KM can be determined experimentally by varying the substrate concentration (S) and measuring the reaction rate (V) at each concentration. Equation 1 can be rearranged as a linear equation (Equation 2). When the reciprocal of the reaction rate (V) is plotted against the reciprocal of the substrate concentration (S), a line fitting the data points can be used to determine KM/Vmax (the slope) and 1/Vmax (y-intercept). A Bradford assay was used to determine the E1 protein concentration in each sample, and this value of ET was used to calculate the kcat values in Table 1. Table 1 depicts a summary of Michaelis-Menten parameters for E1-catalyzed degradation of MUC to MU at various temperatures.

Acidothermus cellulolyticus β-1,4-endoglucanase E1 (P. pastoris-produced), sequence (P54583 other isoform, or with tags, fused parts or gaps): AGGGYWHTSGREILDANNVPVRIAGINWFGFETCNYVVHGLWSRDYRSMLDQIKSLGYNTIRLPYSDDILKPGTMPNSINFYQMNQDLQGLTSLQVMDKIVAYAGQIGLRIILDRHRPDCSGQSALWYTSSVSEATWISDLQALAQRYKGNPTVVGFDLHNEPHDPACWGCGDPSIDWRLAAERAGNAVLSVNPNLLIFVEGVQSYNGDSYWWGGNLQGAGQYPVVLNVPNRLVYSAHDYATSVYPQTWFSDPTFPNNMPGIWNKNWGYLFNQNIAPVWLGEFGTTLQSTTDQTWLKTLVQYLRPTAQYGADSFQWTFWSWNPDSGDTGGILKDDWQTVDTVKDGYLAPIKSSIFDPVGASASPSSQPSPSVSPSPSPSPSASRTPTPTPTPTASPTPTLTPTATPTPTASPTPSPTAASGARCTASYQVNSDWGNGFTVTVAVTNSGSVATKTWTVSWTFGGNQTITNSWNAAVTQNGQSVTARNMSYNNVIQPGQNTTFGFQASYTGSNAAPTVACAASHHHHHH

- kcat (50 °C): 106 ± 5 L/min
- kcat (65 °C): 309 ± 13 L/min
- kcat (80 °C): 667 ± 92 L/min
- kcat (93 °C, uncertainty approaches 100%, not used further): 292 ± 284 L/min
Compound: Cc1cc(=O)oc2cc(O[C@@H]3O[C@H](CO)[C@@H](O[C@@H]4O[C@H](CO)[C@@H](O)[C@H](O)[C@H]4O)[C@H](O)[C@H]3O)ccc12 [MUC, methylumbelliferyl-tagged cellobiose]
